Results from ChEMBL document CHEMBL1129941, “AMPA receptor agonists: synthesis, protolytic properties, and pharmacology of 3-isothiazolol bioisosteres of glutamic acid” (J Med Chem, 1997).

Experiments:
[1] = species on record: Rattus norvegicus; experiment: tissue or blood
Description: Effective concentration evaluated in electrophysiological rat cortical slice model

[2] = target: Glutamate receptor ionotropic, AMPA (Rattus norvegicus, UniProt P19490+P19491+P19492+P19493)
Description: In vitro binding affinity for Ionotropic glutamate receptor AMPA site was determined using [3H]AMPA as radioligand in rat cortex

[3] = test system: Mus musculus; experiment: In vivo convulsant potency after subcutaneous administration in mice; assay type: functional; settings: sc

| EC50 [1] [µM] | IC50 [2] [µM] | Structure (SMILES) | ED50 [3] [µmol/kg] |
| --- | --- | --- | --- |
| 500 | 17 | NC(Cc1snc(O)c1Br)C(=O)O (configuration not stated) | – |
| 370 | 5.8 | NC(Cc1cc(O)ns1)C(=O)O (configuration not stated) | – |
| 15 | 1.8 | Cc1snc(O)c1CC(N)C(=O)O (configuration not stated) | 130 |
| 370 | 1.5 | NC(Cc1cc(O)no1)C(=O)O (configuration not stated) | – |

| Structure (SMILES) | EC50 [1] [µM] | IC50 [2] [µM] | ED50 [3] [µmol/kg] |
| --- | --- | --- | --- |
| CC(C)(C)c1onc(O)c1CC(N)C(=O)O (configuration not stated) | 34 | – | – |
| CC(C)(C)c1snc(O)c1CC(N)C(=O)O (configuration not stated) | 14 | 0.63 | – |
